In ChEMBL document CHEMBL1121920, “Synthesis and biological evaluation of the methyl esters of (+)-12-fluoro-13,14-dihydroprostaglandin F2alpha and (+)-15-epi-12-fluoro-13,14-dihydroprostaglandin F2alpha” (1981):

How the values were obtained:
Cricetinae gen. sp. = experiment: Compound was evaluated for uterine contraction relative to PGF2-alpha in hamsters; type: functional, hamster
Gerbillinae = experiment: Compound was evaluated for gerbil colon contraction relative to PGF2-alpha; type: functional

Compound: CCCCC[C@H](O)CC[C@@]1(F)[C@H](O)C[C@H](O)[C@@H]1C/C=C\CCCC(=O)OC
- Potency (Cricetinae gen. sp.): 0.016
- Potency (Gerbillinae): 0.004

Compound: CCCCC[C@@H](O)CC[C@@]1(F)[C@H](O)C[C@H](O)[C@@H]1C/C=C\CCCC(=O)OC
- Potency (Cricetinae gen. sp.): 0.005
- Potency (Gerbillinae): 0.001

Compound: CCCCC[C@H](O)CC[C@@H]1[C@@H](C/C=C\CCCC(=O)OC)[C@@H](O)C[C@H]1O
- Potency (Cricetinae gen. sp.): 0.95
- Potency (Gerbillinae): 0.11

Compound: CCCCC[C@H](O)/C=C/[C@@]1(F)[C@H](O)C[C@H](O)[C@@H]1C/C=C\CCCC(=O)OC
- Potency (Cricetinae gen. sp.): 0.28
- Potency (Gerbillinae): 0.001

Compound: CCCCC[C@@H](O)/C=C/[C@@]1(F)[C@H](O)C[C@H](O)[C@@H]1C/C=C\CCCC(=O)OC
- Potency (Cricetinae gen. sp.): 0.022
- Potency (Gerbillinae): 0.011

Compound: CCCCC[C@H](O)/C=C/[C@@H]1[C@@H](C/C=C\CCCC(=O)O)[C@@H](O)C[C@H]1O [DINOPROST]
- Potency (Cricetinae gen. sp.): 1
- Potency (Gerbillinae): 1
